Measured values published in article PMC13580833, “Investigation of Thiazolidine‐2,4‐Dione Derivatives as Acetylcholinesterase Inhibitors: Synthesis, In Vitro Biological Activities and In Silico Studies” (ChemistryOpen, 2025).

What was measured:
PC12 cells [1] = test: MTT assay, Aβ1‐42‐induced toxicity in PC12 cells; type: cell-based, Rattus norvegicus; conditions: 0.31–20 μM CHT1, 12, 24 and 48 h
Method: (§1) Rattus norvegicus pheochromocytoma PC12 cells (Pastor Institute, Iran) were cultured in Dulbecco's modified Eagle's medium (DMEM) supplemented with 10 % fetal bovine serum (FBS) and 1 % penicillin/streptomycin (Gibco) at 37 °C with 5 % CO2. PC12 cells were treated with different concentrations of CHT1 for 12, 24, or 48 hours, and promising results were obtained.
(§2) In addition, the Aβ1‐42 peptides were diluted in water and preaggregated at 37 °C for 7 days before use. The cellular AD model was successfully constructed in vitro by incubating PC12 cells with 100 μM aggregated Aβ for 24 hours. DMSO (50 μL) and 0.5 mg/mL MTT (10 μL) stock solution were added to each well for 4 hours of incubation. After 30 minutes, the plates were shaken, and the optical density was measured at 570 nm using an ELISA reader (Biotech). The MTT assay used by Pirali et al.,[23] which underwent slight modifications, yielded promising results.

[2] = MTT assay, Aβ1‐42‐induced toxicity in PC12 cells; type: cell-based, Rattus norvegicus; conditions: rat; PC12 cells, CHT1 20 μM, after 48 h, MTT; read-out: Viability percentage of that of the control
Method: as §1, §2

p‐Tau/Tau = test: Western blot of p‐Tau/Tau in Aβ‐exposed PC12 cells; type: cell-based, Rattus norvegicus; conditions: for Decrease of p‐Tau/Tau compared with the Aβ group: Aβ1‐42 100 μM
Method: (§3) PC12 cells were seeded in a 6‐well plate, treated CHT1 at concentrations of 5 and 8 μM for 24 hours, washed with cold PBS, and lysed with lysis buffer for 30 minutes on ice. After centrifugation at 12,000×g for 10 minutes at 4 °C, the lysates were transferred to new tubes. The Bradford assay was utilized to determine the protein concentration.[24] SDS–PAGE was used to separate the denatured proteins, which were subsequently transferred to PVDF membranes. The membranes were blocked with nonfat dry milk in PBS containing 0.1 % Tween‐20 (PBST) and then incubated overnight at 4 °C with primary antibodies against p‐Taul/Tau, HSP70, and β‐actin as a control. Subsequently, the membranes were exposed to a secondary antibody conjugated with horseradish peroxidase (HRP) for 2 hours at room temperature. Using the densitometric scanning technique in the ImageJ program, the density of the protein bands in the relative direction was determined.

BChE = BChE (Homo sapiens, UniProt P06276); test: BChE inhibition assay (Ellman's method); type: biochemical
Sequence of BChE (P06276 29-602, species assumed): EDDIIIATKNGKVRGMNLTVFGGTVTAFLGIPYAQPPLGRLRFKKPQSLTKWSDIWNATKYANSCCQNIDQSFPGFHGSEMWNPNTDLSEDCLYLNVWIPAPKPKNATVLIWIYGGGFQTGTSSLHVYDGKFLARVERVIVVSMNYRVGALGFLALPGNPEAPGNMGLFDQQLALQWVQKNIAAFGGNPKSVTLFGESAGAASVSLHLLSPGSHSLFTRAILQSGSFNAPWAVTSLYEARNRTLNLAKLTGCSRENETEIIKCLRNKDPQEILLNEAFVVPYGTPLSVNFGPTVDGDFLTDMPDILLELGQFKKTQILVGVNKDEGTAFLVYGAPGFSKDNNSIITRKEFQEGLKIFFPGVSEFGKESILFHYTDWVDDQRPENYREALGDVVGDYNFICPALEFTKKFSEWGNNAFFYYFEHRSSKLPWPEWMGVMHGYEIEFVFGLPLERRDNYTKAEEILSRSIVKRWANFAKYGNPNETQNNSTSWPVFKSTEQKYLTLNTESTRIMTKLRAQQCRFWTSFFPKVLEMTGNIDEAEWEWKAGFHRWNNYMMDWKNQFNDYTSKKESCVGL
Method: The ChEs inhibitory activities based on Ellman's method were assessed using previously described methods.[[15b]] Acetylcholinesterase (electric eel, […]) inhibition assays were conducted with ATCI (10 mM) and DTNB (10 mM). The experiment required adding 50 μL of AChE in Tris‐HCl buffer (pH 8.0), 100 μL substrate, and 50 μL of the sample dissolved in DMSO (10 % in Tris‐HCl buffer) to the wells. For BChE inhibition, mixtures contained 30 μL of 10 mM DTNB, 5 μL of BChE, 30 μL of 10 mM BTChCl (10 mM), and 10 μL of samples.
All samples were dissolved in 10 % DMSO, and the experiment was performed in triplicate.

PC12 cells [3] = test: Growth of PC12 cells in response to treatments (Figure 5); type: cell-based, Rattus norvegicus; conditions: CHT1 pretreatment 5 and 8 μM in the presence of Aβ, 24 hours
HSP70 = test: Western blot of HSP70 in Aβ‐exposed PC12 cells; type: cell-based, Rattus norvegicus; conditions: for Decrease of HSP70 expression compared with the Aβ group: Aβ1‐42 100 μM
Method: as §3

[4] = Ferric reducing/antioxidant power (FRAP) assay; conditions: ferrous ion equivalents per gram of test compound; triplicate
Method: The ferric reducing/antioxidant power (FRAP) assay was performed based on a previous study.[[15a]] […] A standard curve was drawn to analyze different concentrations of ferrous sulfate (0.1–1 mM). The analysis was conducted in triplicates and the value of antioxidant activity results were expressed in mmol ferrous ion equivalents per gram of test compounds (mmol Fe^2+/g).

[5] = Western blotting, CHT1 5 and 8 μM
[6] = PC12 cells, Aβ1‐42 100 μM alone

COc1ccc(C=C2SC(O)=NC2=O)cc1 [CHT1, 5‐(4‐Methoxybenzylidene)thiazolidine‐2,4‐dione]
Acute toxicity in PC12 cells (PC12 cells [1]): acute toxicity was not observed | Effect of pretreatment on Aβ1‐42‐induced cell death (PC12 cells [1]; PC12 cells, Aβ1‐42 100 μM): significant reduction in Aβ1‐42‐induced cell death in a dose‐dependent manner | viability at 48 h, 20 μM [2]: 66.5% | Decrease of p‐Tau/Tau compared with the Aβ group (p‐Tau/Tau; PC12 cells, 5 μM): 2.26 fold | Decrease of p‐Tau/Tau compared with the Aβ group (p‐Tau/Tau; PC12 cells, 8 μM): 2.01 fold | p‐Tau expression level (p‐Tau/Tau; [5]): downregulated | IC50 (BChE): 69.1 nM | Density of PC12 cells compared with Aβ (100 μM) (PC12 cells [3]): increased the density of PC12 cells | Decrease of HSP70 expression compared with the Aβ group (HSP70; PC12 cells, 5 μM): 2.1 fold | Decrease of HSP70 expression compared with the Aβ group (HSP70; PC12 cells, 8 μM): 2.26 fold | HSP70 expression level (HSP70; [5]): downregulated | Antioxidant capacity (FRAP) [4]: 0.78 mmol Fe^2+/g

O=C1NC(=O)C(=Cc2cccc(O)c2)S1 [CHT3, 5‐(3‐Hydroxybenzylidene)thiazolidine‐2,4‐dione]
IC50 (BChE): 81.9 nM | Antioxidant capacity (FRAP) [4]: 0.41 mmol Fe^2+/g

amyloid beta 1–42 [Aβ1‐42, reference compound]
p‐Tau/Tau ratio greater than in the control group (p‐Tau/Tau; [6]): 4.96 fold | HSP70 level greater than in the control group (HSP70; [6]): 3.35 fold

O=C1N=C(O)SC1=Cc1ccc(Cl)cc1 [CHT2, 5‐(4‐Chlorobenzylidene)thiazolidine‐2,4‐dione]
IC50 (BChE): 125 nM

COc1cc2c(cc1OC)C(=O)C(CC1CCN(Cc3ccccc3)CC1)C2 (centres unmarked) [Donepezil, donepezil, reference compound]
Decrease of HSP70 expression compared with the Aβ group (HSP70; PC12 cells, donepezil 75 μM (positive control)): 1.92 fold

O=C1NC(=O)C(=Cc2cccc3ccccc23)S1 [CHT5, 5‐((Naphthalene‐1‐yl)methylene)thiazolidine‐2,4‐dione]
IC50 (BChE): 141 nM | Antioxidant capacity (FRAP) [4]: 0.26 mmol Fe^2+/g

O=C1NC(=O)C(=Cc2ccccc2O)S1 [CHT4, 5‐(2‐Hydroxybenzylidene)thiazolidine‐2,4‐dione]
IC50 (BChE): 102 nM | Antioxidant capacity (FRAP) [4]: 0.45 mmol Fe^2+/g

O=C1O[C@H]([C@@H](O)CO)C(O)=C1O [ascorbic acid, reference compound]
Antioxidant capacity (FRAP) [4]: 1.15 mmol Fe^2+/g
